Assay results from patent US12552751B2, “Crystal forms A, B, C, D, E, F and G of selumetinib sulfate and preparation methods thereof” (Chunghwa Chemical Synthesis & Biotech Co. Ltd., priority 2023, dated 2026).

Legend:
[1] = Stability of crystal forms in a constant-humidity and constant-temperature cabinet; assay type: physicochemical; details: for Crystal form after exposure, 80° C. and 75% RH, 1 day / Crystal form after exposure, 80° C. and 75% RH, 3 days: powder; for Crystal form stability under 80° C. and 75% RH (text summary of Table 2): time not stated
Protocol: The stability of crystal forms A, B, C, D, E, F and G of selumetinib sulfate was tested by placing the different crystal forms of selumetinib sulfate into a constant-humidity and constant-temperature cabinet, where the powder of each crystal form was exposed to a temperature of 80° C. and a relative humidity (RH) of 75%.

[2] = cited from earlier work
[3] = solid; cited from earlier work

Compound: Cn1cnc2c(F)c(Nc3ccc(Br)cc3Cl)c(C(=O)NOCCO)cc21.O=S(=O)(O)O [Crystal form A, selumetinib sulfate]
- Crystal form after exposure, 80° C. and 75% RH, 1 day ([1]; listed as A): A turned into C
- Crystal form after exposure, 80° C. and 75% RH, 3 days ([1]; listed as A): A turned into C
- Crystal form stability under 80° C. and 75% RH (text summary of Table 2) ([1]; listed as crystal form A): turned into crystal form C

Compound: Cn1cnc2c(F)c(Nc3ccc(Br)cc3Cl)c(C(=O)NOCCO)cc21.O=S(=O)(O)O [Crystal form B, selumetinib sulfate]
- Crystal form after exposure, 80° C. and 75% RH, 1 day ([1]; listed as B): Remained B
- Crystal form after exposure, 80° C. and 75% RH, 3 days ([1]; listed as B): Remained B
- Crystal form stability under 80° C. and 75% RH (text summary of Table 2) ([1]; listed as B): remained unchanged

Compound: Cn1cnc2c(F)c(Nc3ccc(Br)cc3Cl)c(C(=O)NOCCO)cc21.O=S(=O)(O)O [Crystal form C, selumetinib sulfate]
- Crystal form after exposure, 80° C. and 75% RH, 1 day ([1]; listed as C): Remained C
- Crystal form after exposure, 80° C. and 75% RH, 3 days ([1]; listed as C): Remained C
- Crystal form stability under 80° C. and 75% RH (text summary of Table 2) ([1]; listed as C): remained unchanged

Compound: Cn1cnc2c(F)c(Nc3ccc(Br)cc3Cl)c(C(=O)NOCCO)cc21.O=S(=O)(O)O [Crystal form D, selumetinib sulfate]
- Crystal form after exposure, 80° C. and 75% RH, 1 day ([1]; listed as D): Remained D
- Crystal form after exposure, 80° C. and 75% RH, 3 days ([1]; listed as D): Remained D
- Crystal form stability under 80° C. and 75% RH (text summary of Table 2) ([1]; listed as D): remained unchanged

Compound: Cn1cnc2c(F)c(Nc3ccc(Br)cc3Cl)c(C(=O)NOCCO)cc21.O=S(=O)(O)O [Crystal form E, selumetinib sulfate]
- Crystal form after exposure, 80° C. and 75% RH, 1 day ([1]; listed as E): Remained E
- Crystal form after exposure, 80° C. and 75% RH, 3 days ([1]; listed as E): Remained E
- Crystal form stability under 80° C. and 75% RH (text summary of Table 2) ([1]; listed as E): remained unchanged

Compound: Cn1cnc2c(F)c(Nc3ccc(Br)cc3Cl)c(C(=O)NOCCO)cc21.O=S(=O)(O)O [Crystal form F, selumetinib sulfate]
- Crystal form after exposure, 80° C. and 75% RH, 1 day ([1]; listed as F): Remained F
- Crystal form after exposure, 80° C. and 75% RH, 3 days ([1]; listed as F): Remained F
- Crystal form stability under 80° C. and 75% RH (text summary of Table 2) ([1]; listed as F): remained unchanged

Compound: Cn1cnc2c(F)c(Nc3ccc(Br)cc3Cl)c(C(=O)NOCCO)cc21.O=S(=O)(O)O [Crystal form G, selumetinib sulfate]
- Crystal form after exposure, 80° C. and 75% RH, 1 day ([1]; listed as G): Remained G
- Crystal form after exposure, 80° C. and 75% RH, 3 days ([1]; listed as G): Remained G
- Crystal form stability under 80° C. and 75% RH (text summary of Table 2) ([1]; listed as G): remained unchanged

Compound: Cn1cnc2c(F)c(Nc3ccc(Br)cc3Cl)c(C(=O)NOCCO)cc21.O=S(=O)(O)O [Selumetinib sulfate]
- Solubility in acetonitrile ([2]; acetonitrile): slightly soluble
- Solubility in ethanol ([2]; ethanol): slightly soluble
- Solubility in water ([2]; water): very low solubility
- Hygroscopicity [3]: non-hygroscopic
